“Also recorded” adds a separate entry of the source.
Key:
[1] = target: T1, gonococcal LOS sialyltransferase (Lst) (Neisseria gonorrhoeae, UniProt P72074); assay type: cell-based, N. gonorrhoeae; details: CMP salt 30 μM (20 μg/ml), 2 h at 37° C.
T1 construct: served as substrates for gonococcal Lst in the context of live bacteria; endogenous in cells; host or cells: N. gonorrhoeae F62 ΔlgtD (live bacteria)
Method: FIG. 1. Substrate specificity of gonococcal LOS sialyltransferase (Lst) N. gonorrhoeae strain F62 ΔIgtD was grown in standard gonococcal liquid media alone (‘No sialic acid’) or in media supplemented with CMP salts of the indicated sialic acid or nonulosonic acid, each at a concentration of 20 μg/ml (˜30 μM), for 2 h at 37° C. Bacteria were washed, pellets treated with protease K, lysed in 4×LDS buffer and lysates were separated on 12% Bis-Tris gels using MES running buffer. LOS was transferred to a PVDF membrane and probed with mAb 3F11 that recognizes the lacto-N-neotetraose only in the non-sialylated state; the addition of a sialic acid or nonulosonate residue abrogates mAb 3F11 binding (upper panel). LOS was also visualized by silver staining (middle panel). Sialylation or nonulosonate (NulO) modification was also quantified using whole cell ELISA with mAb 3F11 (lower graph).
To define the substrate specificity of gonococcal LOS sialyltransferase, N. gonorrhoeae F62 ΔIgtD was grown in media alone, or media that contained the CMP-activated derivatives of 7 nonulosonates (listed in Table 1), each at a concentration of 30 μM (20 μg/ml). Following incubation for 2 h at 37° C., bacteria were washed, lysed with protease K/LDS sample buffer and separated on 12% Bis-tris gels. Blots were probed with mAb 3F11, which binds to the terminal lactosamine residue of lacto-N-neotetraose (LNT); any extension beyond the terminal Gal (in this instance with a nonose) would abrogate 3F11 binding. […] Whole cell ELISA with mAb 3F11 confirmed results of western blotting (FIG. 1, lower graph).
Bacteria (F62 ΔIgtD) grown overnight on chocolate agar plates were suspended in gonococcal liquid media supplemented with IsoVitaleX (11) that contained specified concentrations of the CMP-nonulosonate. Bacteria were then incubated at 37° C. for the period specified in each experiment.
Gonococcal lysates treated with protease K (100 μg/ml) and NuPAGE® LDS Sample Buffer (4×) (Invitrogen) were separated on NuPAGE® 12% Bis-Tris (Invitrogen) gels using Novex® MES running buffer (Invitrogen) followed by sliver staining with the Bio-Rad Silver Stain Kit, or were transferred to an Immobilon PVDF membrane (Millipore). Membranes were blocked with PBS/1% milk and probed with tissue culture supernatants that contained mAb 3F11. mAb 3F11-reactive LOS bands were disclosed with anti-mouse IgM conjugated to alkaline phosphatase followed by the addition of BCIP®/NBT-Purple Liquid Substrate (Sigma).

N. gonorrhoeae F62 ΔIgtD = assay type: cell-based; set-up: key to Serum resistance: high: >100% survival in 10% serum; low: >100% survival in 3.3% serum and <10% survival in 10% serum; details: for Serum resistance: summary Table 1; for bacterial survival / serum resistance: all serum concentrations tested (10, 6.7, 3.3%), 30 μM; for serum resistance mediated by CMP-Neu5Ac: analogue 20, 2 or 0.2 μg/ml added 15 min after CMP-Neu5Ac 20 μg/ml, grown 2 h; for killing of bacteria made serum resistant by CMP-Neu5Ac: analogue added 120 min after CMP-Neu5Ac, data not shown
Method: FIG. 2. […] N. gonorrhoeae F62 ΔIgtD was grown in media alone (no CMP-sialic acid added), or media that contained 20 μg/ml (˜30 μM) of each of the indicated CMP-nonulosonates. Resistance of bacteria to complement-dependent killing in the presence of 3.3%, 6.7% or 10% normal human serum (NHS) was measured in serum bactericidal assays.
FIG. 5. […] N. gonorrhoeae F62 ΔIgtD was suspended in media containing 20 μg/ml (˜30 μM) CMP-Neu5Ac. Following 15 min of incubation at 37° C., CMP-Neu5Ac9Az or CMP-Leg5Ac7Ac (at concentrations of 20, 2 or 0.2 μg/ml final) were added and bacteria were incubated for 2 h. Serum bactericidal assays were then performed using 3.3% (solid black bars) or 10% (hatched bars) NHS. Controls included bacteria in media that lacked any CMP-nonulosonate, or bacteria that were incubated in CMP-Neu5Ac only. Y-axis, % survival.
We next determined the effects of incorporation of the CMP salts of five structural analogues of Neu5Ac (Neu5Gc, Neu5Ac9Ac, Neu5Ac9Az, Neu5Gc8Me and Leg5Ac7Ac) on the ability of N. gonorrhoeae F62 ΔIgtD to resist complement-dependent killing by normal human serum at concentrations of 10, 6.7 or 3.3%. Bacteria were grown either in media alone, or media supplemented with 30 μM (˜20 μg/ml) of each of the CMP-nonulosonates.
The ability of two of the CMP-nonulosonates, CMP-Neu5Ac9Az and CMP-Leg5Ac7Ac, to counter the ability of CMP-Neu5Ac to enhance serum resistance of N. gonorrrhoeae was then examined. The analogues were added at concentrations of 20, 2 or 0.2 μg/ml to growth media 15 min after the addition of CMP-Neu5Ac (20 μg/ml) to F62 ΔIgtD.
Serum bactericidal assays were performed as described previously (11). Bacteria harvested from an overnight culture on chocolate agar plates were grown in liquid media containing the specified concentration of CMP-nonulosonate as specified for each experiment. Approximately 2000 CFU of F62 ΔIgtD were incubated with NHS (concentration specified for each experiment). The final reaction volumes were maintained at 150 μl. […]

T1 sequence (P72074 whole entry): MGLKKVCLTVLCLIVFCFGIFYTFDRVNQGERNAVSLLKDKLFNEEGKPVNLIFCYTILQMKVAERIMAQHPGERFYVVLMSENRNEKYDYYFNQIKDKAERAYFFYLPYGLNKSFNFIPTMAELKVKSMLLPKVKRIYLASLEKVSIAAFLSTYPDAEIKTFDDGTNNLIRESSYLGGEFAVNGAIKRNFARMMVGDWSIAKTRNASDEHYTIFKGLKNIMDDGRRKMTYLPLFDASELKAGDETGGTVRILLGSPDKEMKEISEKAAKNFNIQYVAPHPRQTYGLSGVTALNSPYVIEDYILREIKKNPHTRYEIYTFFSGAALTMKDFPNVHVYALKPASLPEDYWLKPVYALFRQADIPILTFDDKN

| Compound | mAb 3F11 binding / incorporation of nonulosonate onto LNT LOS (use as Lst substrate) [1] | bacterial survival (N. gonorrhoeae F62 ΔIgtD; CMP-Neu5Ac 20 μg/ml, 32 min exposure, 10% NHS) [%] | resistance to 10% serum (N. gonorrhoeae F62 ΔIgtD; CMP-nonulosonate 3 μM (~2 μg/ml), 10% serum) | Serum resistance (N. gonorrhoeae F62 ΔIgtD) | bacterial survival / serum resistance (N. gonorrhoeae F62 ΔIgtD) | serum resistance mediated by CMP-Neu5Ac (N. gonorrhoeae F62 ΔIgtD) | killing of bacteria made serum resistant by CMP-Neu5Ac (N. gonorrhoeae F62 ΔIgtD) |
| --- | --- | --- | --- | --- | --- | --- | --- |
| CC(=O)NC1C(O)CC(OP(=O)(O)OCC2OC(n3ccc(N)nc3=O)C(O)C2O)(C(=O)O)OC1C(O)C(O)CO [CMP-Neu5Ac, CMP-5-acetamido-3,5-dideoxy-D-glycero-D-galacto-nonulosonic acid, reference compound] | decreased binding of mAb 3F11 | ~42 | conferred resistance | high^B (>100% survival in 10% serum) |  |  |  |
| CC(=O)N[C@H]1[C@H]([C@H](O)[C@H](O)COC(C)=O)OC(OP(=O)(O)OC[C@H]2O[C@@H](n3ccc(N)nc3=O)[C@H](O)[C@@H]2O)(C(=O)O)C[C@@H]1O (stereo partly drawn) [CMP-Neu5Ac9Ac, CMP-5-acetamido-9-O-acetyl-3,5-dideoxy-D-glycero-D-galacto-nonulosonic acid] | decreased binding of mAb 3F11 |  |  | low^C |  |  |  |
| COC(CO)C(O)C1OC(OP(=O)(O)OCC2OC(n3ccc(N)nc3=O)C(O)C2O)(C(=O)O)CC(O)C1NC(=O)CO [CMP-Neu5Gc8Me, CMP-5-hydroxyacetamido-8-O-methyl-3,5-dideoxy-D-glycero-D-galacto-nonulosonic acid] | decreased binding of mAb 3F11 |  |  | low |  |  |  |
| 5,7-diacetamido-3,5,7,9-tetradeoxy-D-glycero-D-galacto-nonulosonic acid [CMP-Leg5Ac7Ac] | decreased binding of mAb 3F11; also recorded: least incorporated |  |  | none | did not increase bacterial survival | blocked serum resistance; also recorded: completely blocked | did not induce any killing |
| CC(=O)N[C@H]1[C@H]([C@H](O)[C@H](O)CN=[N+]=[N-])OC(OP(=O)(O)OC[C@H]2O[C@@H](n3ccc(N)nc3=O)[C@H](O)[C@@H]2O)(C(=O)O)C[C@@H]1O (stereo partly drawn) [CMP-Neu5Ac9Az, CMP-5-acetamido-9-azido-3,5,9-trideoxy-D-glycero-D-galacto-nonulosonic acid] | decreased binding of mAb 3F11 |  |  | none | did not increase bacterial survival | blocked serum resistance; also recorded: completely blocked | did not induce any killing |
